A short description of series [1]: in vitro. The settings on record: pig, PAMPA. On the technique in general: PAMPA measures passive passage across an artificial lipid membrane.
Description: Permeability across porcine brain lipid coated polyvinylidene fluoride membrane by PAMPA
For series [2], the target named is Cholinesterase (Homo sapiens, UniProt P06276).
Description: Inhibition of human serum BChE by Ellman's method
The target in series [3] is Acetylcholinesterase (Electrophorus electricus, UniProt O42275).
Description: Inhibition of electric eel AChE by Rappaport method
In series [4] the target is T1, Acetylcholinesterase (Homo sapiens, UniProt P22303).
Description: Inhibition of human serum AChE by Ellman's method
Series [5] is described as follows: Inhibition of amyloid beta (1-42) self-aggregation at 1:1 drug to amyloid beta (1 to 42) ratio after 24 hrs by thioflavin T fluorescence method. The settings on record: concentration not given here.
For series [6], the target named is T1, Acetylcholinesterase. Particulars: 100 uM.
Description: Inhibition of human AChE-induced amyloid beta (1-40) aggregation at 100 uM after 24 hrs by thioflavin T fluorescence method

SMILES strings stand for the structures. Some results are limits rather than exact numbers.

From ChEMBL document CHEMBL1138487, “Tacripyrines, the first tacrine-dihydropyridine hybrids, as multitarget-directed ligands for the treatment of Alzheimer's disease” (J Med Chem, 2009) come the findings set out here.

A word on the Papp: it is the rate of passage across a membrane or cell layer, normalised by area and donor concentration. A word on the IC50: it is the concentration needed to halve the response being measured. Read a high IC50 as weaker potency in that assay. One may read the inhibition as the change of the read-out against control, counted positive when it falls.

T1 sequence (P22303 whole entry): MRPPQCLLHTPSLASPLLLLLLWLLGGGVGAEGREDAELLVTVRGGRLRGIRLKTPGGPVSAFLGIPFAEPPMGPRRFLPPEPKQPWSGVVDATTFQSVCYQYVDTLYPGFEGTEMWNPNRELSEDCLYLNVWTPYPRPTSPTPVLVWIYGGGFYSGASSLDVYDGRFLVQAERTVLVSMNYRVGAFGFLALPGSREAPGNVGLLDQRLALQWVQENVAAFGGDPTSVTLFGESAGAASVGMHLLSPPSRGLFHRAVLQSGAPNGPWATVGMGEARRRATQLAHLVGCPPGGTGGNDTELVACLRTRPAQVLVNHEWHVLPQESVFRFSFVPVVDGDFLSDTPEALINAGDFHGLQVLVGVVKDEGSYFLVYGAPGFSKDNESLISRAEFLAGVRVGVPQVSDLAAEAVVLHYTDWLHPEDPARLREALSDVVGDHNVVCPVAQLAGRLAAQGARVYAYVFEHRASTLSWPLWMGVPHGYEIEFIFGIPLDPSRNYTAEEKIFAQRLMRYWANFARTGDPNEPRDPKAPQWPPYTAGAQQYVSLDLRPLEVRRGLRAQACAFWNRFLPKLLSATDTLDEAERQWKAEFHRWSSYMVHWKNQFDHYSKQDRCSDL
Sequence of Acetylcholinesterase (Electrophorus electricus, UniProt O42275) (O42275 whole entry): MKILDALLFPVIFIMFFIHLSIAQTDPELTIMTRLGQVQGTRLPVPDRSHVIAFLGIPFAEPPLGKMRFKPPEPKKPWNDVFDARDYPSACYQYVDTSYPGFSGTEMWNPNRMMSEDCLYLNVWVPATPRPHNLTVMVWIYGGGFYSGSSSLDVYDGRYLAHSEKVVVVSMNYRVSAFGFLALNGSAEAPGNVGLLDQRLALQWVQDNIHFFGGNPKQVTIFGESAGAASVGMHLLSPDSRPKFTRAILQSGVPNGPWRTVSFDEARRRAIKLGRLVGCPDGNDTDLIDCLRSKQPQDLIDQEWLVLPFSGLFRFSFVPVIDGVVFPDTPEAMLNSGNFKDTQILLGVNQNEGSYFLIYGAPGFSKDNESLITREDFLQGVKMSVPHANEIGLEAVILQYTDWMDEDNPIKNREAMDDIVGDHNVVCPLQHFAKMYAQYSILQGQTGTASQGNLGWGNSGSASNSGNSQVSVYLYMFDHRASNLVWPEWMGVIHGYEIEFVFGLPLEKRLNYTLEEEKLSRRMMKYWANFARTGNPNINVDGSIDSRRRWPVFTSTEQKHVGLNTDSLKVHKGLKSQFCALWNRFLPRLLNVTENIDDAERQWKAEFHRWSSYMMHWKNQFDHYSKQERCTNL
Sequence of Cholinesterase (P06276 whole entry): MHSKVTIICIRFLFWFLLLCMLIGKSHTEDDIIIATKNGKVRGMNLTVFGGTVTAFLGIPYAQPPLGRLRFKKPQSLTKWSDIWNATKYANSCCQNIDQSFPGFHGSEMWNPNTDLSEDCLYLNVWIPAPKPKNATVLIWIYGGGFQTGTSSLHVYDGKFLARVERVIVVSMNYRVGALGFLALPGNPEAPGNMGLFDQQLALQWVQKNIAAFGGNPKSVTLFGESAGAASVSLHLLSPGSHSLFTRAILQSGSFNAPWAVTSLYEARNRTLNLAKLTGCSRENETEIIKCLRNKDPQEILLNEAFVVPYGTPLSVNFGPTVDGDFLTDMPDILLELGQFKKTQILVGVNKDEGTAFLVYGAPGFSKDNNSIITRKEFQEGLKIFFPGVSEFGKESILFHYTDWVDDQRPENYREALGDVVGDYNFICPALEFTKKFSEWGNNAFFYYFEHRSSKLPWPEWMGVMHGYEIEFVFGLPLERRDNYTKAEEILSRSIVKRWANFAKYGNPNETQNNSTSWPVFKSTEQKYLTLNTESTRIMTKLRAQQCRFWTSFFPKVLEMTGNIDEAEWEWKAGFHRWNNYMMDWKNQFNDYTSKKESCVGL

For `CN(C)CCCN1c2ccccc2Sc2ccccc21` [PROMAZINE], the apparent permeability (Papp) in series [1] came out at 7.7 ×10⁻⁶ cm/s.
Same read-out and setting: the value for `COc1ccc(CCN2CCC(Nc3nc4ccccc4n3Cc3ccc(F)cc3)CC2)cc1` [ASTEMIZOLE] was 6.1 ×10⁻⁶ cm/s.
With `CCOC(=O)C1=C(C)Nc2nc3c(c(N)c2C1c1ccc(-c2ccccc2)cc1)CCCC3` (stereo unspecified), the IC50 was above 100 µM in series [2], 90 nM in series [3] and 71 nM in series [4].
Turning to `CCOC(=O)C1=C(C)Nc2nc3c(c(N)c2C1c1ccc(OC)cc1)CCCC3` (stereo unspecified), the figures for the inhibition in series [5] and in series [6] were 34.9% and 30.7%, respectively.
`C[C@]12CCC(=O)C=C1CC[C@@H]1[C@@H]2[C@@H](O)C[C@]2(C=O)[C@@H](C(=O)CO)CC[C@@H]12` [ALDOSTERONE] registered an apparent permeability (Papp) in series [1] of 0.6 ×10⁻⁶ cm/s.
With `CCOC(=O)C1=C(C)Nc2nc3c(c(N)c2C1c1ccncc1)CCCC3` (stereo unspecified), the half-inhibitory concentration (IC50) in series [2] is above 100 µM; in series [3], 220 nM; in series [4], 223 nM.
Compound `CCn1cc(C(=O)O)c(=O)c2cc(F)c(N3CCNCC3)nc21` [ENOXACIN] displayed a Papp in series [1] of 0.6 ×10⁻⁶ cm/s.
Still for that read-out and setting: for `CN1C(C(=O)Nc2ccccn2)=C(O)c2ccccc2S1(=O)=O` [PIROXICAM] the value was 0.4 ×10⁻⁶ cm/s.
`CCOC(=O)C1=C(C)Nc2nc3c(c(N)c2C1c1cccnc1)CCCC3` (stereo unspecified): the IC50 in series [2] was above 100 µM; in series [3], 47 nM; in series [4], 158 nM.
The compound `CC(=O)[C@H]1CC[C@H]2[C@@H]3CCC4=CC(=O)CC[C@]4(C)[C@H]3CC[C@]12C` [PROGESTERONE] registered a Papp in series [1] of 6.6 ×10⁻⁶ cm/s.
On to `CCn1cc(C(=O)O)c(=O)c2cc(F)c(N3CCNC(C)C3)c(F)c21` (stereo unspecified) [LOMEFLOXACIN], for which the Papp in series [1] came out at 0.5 ×10⁻⁶ cm/s.
Regarding `CCOC(=O)C1=C(C)Nc2nc3c(c(N)c2C1c1ccc(OC)c(OC)c1)CCCC3` (stereo unspecified), the IC50 is above 100 µM in series [2], 103 nM in series [3] and 45 nM in series [4].
